From patent US10844044B2 (Vanderbilt University, priority 2018, dated 2020) come the findings set out here.

Molecules are shown by their SMILES.

One test concerns the target WDR5 (Homo sapiens (Human), UniProt P61964). The test is described as follows: TR-FRET binding assay (displacement of 10mer-Thr-FAM probe from WDR5).
Conditions: not given
For orientation: In TR-FRET formats the signal depends on donor and acceptor labels being close together.
As usually defined, the Ki is a measure of affinity in units of concentration, obtained from inhibition or displacement. Compound `Cn1ccn(Cc2cc(C(=O)N[C@H]3CCc4cc(F)ccc43)cc(-c3cccnc3C(F)(F)F)c2)c1=N` [Example 129, (S)—N-(5-Fluoro-2,3-dihydro-1H-inden-1-yl)-3-((2-imino-3-methyl-2,3-dihydro-1H-imidazol-1-yl)methyl)-5-(2-(trifluoromethyl)pyridin-3-yl)benzamide] showed an inhibition constant Ki greater than 33 nM.
On the same count and under the same terms, under `COc1cc(CNC(=O)c2cc(Cn3ccn(-c4ccccc4)c3=N)cc(-c3ccc(F)cc3C)c2)cc(OC)c1` [Example 133, N-(3,5-Dimethoxybenzyl)-4′-fluoro-5-((2-imino-3-phenyl-2,3-dihydro-1H-imidazol-1-yl)methyl)-2′-methyl-[1,1′-biphenyl]-3-carboxamide] stands greater than 33 nM.
Compound `COc1cc(CNC(=O)c2cc(Cn3ccn(C)c3=N)cc(-c3ccc(F)cc3C(N)=O)c2)cc(OC)c1` [Example 152, N3′-(3,5-dimethoxybenzyl)-4-fluoro-5′-((2-imino-3-methyl-2,3-dihydro-1H-imidazol-1-yl)methyl)-[1,1′-biphenyl]-2,3′-dicarboxamide] returned a Ki of 8.9 nM.

Still in this test, the particulars now being: read-out: Ki for Inhibition of WDR5 by TR-FRET assay.
On to `Cc1cc([C@@H](NC(=O)c2cc(Cn3ccn(C)c3=N)cc(-c3cncnc3C(F)(F)F)c2)C2CC2)ccc1F` [Example 123, (S)—N-(Cyclopropyl(4-fluoro-3-methylphenyl)methyl)-3-((2-imino-3-methyl-2,3-dihydro-1H-imidazol-1-yl)methyl)-5-(4-(trifluoromethyl)pyrimidin-5-yl)benzamide], for which the inhibition constant (Ki) worked out at 0.18 nM.
As to `C[C@H](NC(=O)c1cc(Cn2ccn(C)c2=N)cc(-c2cccnc2C(F)(F)F)c1)c1ccc(F)c(Cl)c1` [Example 124, (S)—N-(1-(3-chloro-4-fluorophenyl)ethyl)-3-((2-imino-3-methyl-2,3-dihydro-1H-imidazol-1-yl)methyl)-5-(2-(trifluoromethyl)pyridin-3-yl)benzamide], the inhibitory constant (Ki) came out at 1 nM.
On the same count and under the same terms, under `Cc1cc([C@@H](NC(=O)c2cc(Cn3ccn(-c4ccccc4)c3=N)cc(-c3cccnc3C(F)(F)F)c2)C2CC2)ccc1F` [Example 137, (S)—N-(Cyclopropyl(4-fluoro-3-methylphenyl)methyl)-3-((2-imino-3-phenyl-2,3-dihydro-1H-imidazol-1-yl)methyl)-5-(2-(trifluoromethyl)pyridin-3-yl)benzamide] stands greater than 33 nM.

Still in this test, the particulars now being: read-out: Ki for Inhibition of WDR5 by TR-FRET assay; TR-FRET, 10mer-Thr-FAM probe, WDR5-His tag 2 nM, pH 7.0.
Turning to `COc1cc(OC)cc(C(NC(=O)c2cc(Cn3ccn(C)c3=N)cc(-c3ncnc4c3CCCC4)c2)C2CC2)c1` (stereo not shown) [Example 96, N-(Cyclopropyl(3,5-dimethoxyphenyl)methyl)-3-((2-imino-3-methyl-2,3-dihydro-1H-imidazol-1-yl)methyl)-5-(5,6,7,8-tetrahydroquinazolin-4-yl)benzamide], the Ki stood at 27 nM.
For `Cc1cc(CNC(=O)c2cc(Cn3ccn(C)c3=N)cc(-c3ccc(F)cc3C(F)(F)F)n2)ccc1Cl` [Example 99, N-(4-Chloro-3-methylbenzyl)-6-(4-fluoro-2-(trifluoromethyl)phenyl)-4-((2-imino-3-methyl-2,3-dihydro-1H-imidazol-1-yl)methyl)picolinamide], the inhibitory constant (Ki) was found to be 1.1 nM.
The same measure, in the same setting: under `COc1cc(CNC(=O)c2cc(Cn3ccn(C)c3=N)cc(-c3ccc(F)cc3C(F)(F)F)n2)cc(OC)c1` [Example 100, N-(3,5-Dimethoxybenzyl)-6-(4-fluoro-2-(trifluoromethyl)phenyl)-4-((2-imino-3-methyl-2,3-dihydro-1-imidazol-1-yl)methyl)picolinamide] stands 0.71 nM; under `Cc1ccnc(C(NC(=O)c2cc(Cn3ccn(C)c3=N)cc(-c3ccc(F)cc3C(F)(F)F)n2)C2CC2)c1` (stereo not shown) [Example 101, N-(Cyclopropyl(4-methylpyridin-2-yl)methyl)-6-(4-fluoro-2-(trifluoromethyl)phenyl)-4-((2-imino-3-methyl-2,3-dihydro-1H-imidazol-1-yl)methyl)picolinamide], 0.45 nM.
On the same count and under the same terms, under `COC(=O)CC(NC(=O)c1cc(Cn2ccn(C)c2=N)cc(-c2ccc(F)cc2C(F)(F)F)c1F)c1ccc(Cl)c(Cl)c1` (stereo not shown) [Example 110, Methyl 3-(3,4-dichlorophenyl)-3-(2,4′-difluoro-5-((2-imino-3-methyl-2,3-dihydro-1H-imidazol-1-yl)methyl)-2′-(trifluoromethyl)-[1,1′-biphenyl]-3-carboxamido)propanoate] stands 0.1 nM.
On to `Cc1[nH]c(=O)ccc1-c1cc(Cn2ccn(C)c2=N)cc(C(=O)NCc2ccc(Cl)c(Cl)c2)c1` [Example 112, N-(3,4-Cichlorobenzyl)-3-((2-imino-3-methyl-2,3-dihydro-1-imidazol-1-yl)methyl)-5-(2-methyl-6-oxo-1,6-dihydropyridin-3-yl)benzamide], for which the Ki worked out at 29 nM.
As for `Cc1cc([C@@H](NC(=O)c2cc(Cn3ccn(C)c3=N)cc(-c3cnc(F)cc3C)c2)C2CC2)ccc1F` [Example 113, (S)—N-(Cyclopropyl(4-fluoro-3-methylphenyl)methyl)-3-(6-fluoro-4-methylpyridin-3-yl)-5-((2-imino-3-methyl-2,3-dihydro-1H-imidazol-1-yl)methyl)benzamide], the inhibition constant Ki was greater than 33 nM.
Still for that read-out and setting: under `C[C@H](NC(=O)c1cc(Cn2ccn(C)c2=N)cc(-c2cccnc2C(F)(F)F)c1)c1ccc(C(F)(F)F)cc1` [Example 126, (S)-3-((2-Imino-3-methyl-2,3-dihydro-1H-imidazol-1-yl)methyl)-N-(1-(4-(trifluoromethyl)phenyl)ethyl)-5-(2-(trifluoromethyl)pyridin-3-yl)benzamide] stands 2.5 nM; under `Cn1ccn(Cc2cc(C(=O)N[C@H](c3ccc(F)cn3)C3CC3)cc(-c3cccnc3C(F)(F)F)c2)c1=N` [Example 128, (S)—N-(Cyclopropyl(5-fluoropyridin-2-yl)methyl)-3-((2-imino-3-methyl-2,3-dihydro-1H-imidazol-1-yl)methyl)-5-(2-(trifluoromethyl)pyridin-3-yl)benzamide], 23 nM; under `C[C@H](NC(=O)c1cc(Cn2ccn(C)c2=N)cc(-c2cccnc2C(F)(F)F)c1)c1ncc(F)cn1` [Example 130, (S)—N-(1-(5-Fluoropyrimidin-2-yl)ethyl)-3-((2-imino-3-methyl-2,3-dihydro-1H-imidazol-1-yl)methyl)-5-(2-(trifluoromethyl)pyridin-3-yl)benzamide], greater than 33 nM.
The same measure, in the same setting: under `COc1cc(CNC(=O)c2cc(Cn3ccn(CC4CC4)c3=N)cc(-c3ccc(F)cc3C)c2)cc(OC)c1` [Example 134, 5-((3-(Cyclopropylmethyl)-2-imino-2,3-dihydro-1H-imidazol-1-yl)methyl)-N-(3,5-dimethoxybenzyl)-4′-fluoro-2′-methyl-[1,1′-biphenyl]-3-carboxamide] stands 38 nM; under `Cc1cc([C@@H](NC(=O)c2cc(Cn3ccn(C)c3=N)cc(-c3ccnc4c3CCC4)c2)C2CC2)ccc1F` [Example 136, (S)—N-(Cyclopropyl(4-fluoro-3-methylphenyl)methyl)-3-(6,7-dihydro-5H-cyclopenta[b]pyridin-4-yl)-5-((2-imino-3-methyl-2,3-dihydro-1H-imidazol-1-yl)methyl)benzamide], less than 0.1 nM.
For `Cc1ccnc(C(NC(=O)c2cc(Cn3ccn(C)c3=N)cc(OC(F)(F)F)c2)C2CC2)c1` (stereo not shown) [Example 145, N-(Cyclopropyl(4-methylpyridin-2-yl)methyl)-3-((2-imino-3-methyl-2,3-dihydro-1H-imidazol-1-yl)methyl)-5-(trifluoromethoxy)benzamide], the inhibitory constant (Ki) worked out at 0.95 nM.
Still for that read-out and setting: for `Cn1ccn(Cc2cc(OC(F)(F)F)cc(C(=O)N[C@@H](CC(=O)O)c3cccc(C(F)(F)F)c3)c2)c1=N` [Example 146, (S)-3-(3-((2-Imino-3-methyl-2,3-dihydro-1H-imidazol-1-yl)methyl)-5-(trifluoromethoxy)benzamido)-3-(3-(trifluoromethyl)phenyl)propanoic acid] the value was 10 nM; for `Cn1ccn(Cc2cc(C(=O)N[C@@H](CC(=O)O)c3cccc(C(F)(F)F)c3)c(F)c(-c3ccc(F)cc3C(F)(F)F)c2)c1=N` [Example 148, (S)-3-(2,4′-Difluoro-5-((2-imino-3-methyl-2,3-dihydro-1H-imidazol-1-yl)methyl)-2′-(trifluoromethyl)-[1,1′-biphenyl]-3-carboxamido)-3-(3-(trifluoromethyl)phenyl)propanoic acid], 0.29 nM.
The same measure, in the same setting: for `Cc1ccnc([C@@H](NC(=O)c2cc(Cn3ccn(C)c3=N)cc(OC(F)(F)F)c2)C2CC2)c1` [Example 149, (S)—N-(Cyclopropyl(4-methylpyridin-2-yl)methyl)-3-((2-imino-3-methyl-2,3-dihydro-1H-imidazol-1-yl)methyl)-5-(trifluoromethoxy)benzamide] the value was 0.56 nM.
The same measure, in the same setting: under `Cn1ccn(Cc2cc(C(=O)N[C@H](c3ccc(Cl)c(Cl)c3)C3CC3)cc(-c3ccc(F)cc3OC(F)F)c2)c1=N` [Example 150, (S)—N-(Cyclopropyl(3,4-dichlorophenyl)methyl)-2′-(difluoromethoxy)-4′-fluoro-5-((2-imino-3-methyl-2,3-dihydro-1H-imidazol-1-yl)methyl)-[1,1′-biphenyl]-3-carboxamide] stands 0.13 nM; under `N=c1n(Cc2cc(C(=O)N[C@H](c3ccc(Cl)c(Cl)c3)C3CC3)cc(-c3ccc(F)cc3OC(F)F)c2)ccn1C1CC1` [Example 151, (S)—N-(Cyclopropyl(3,4-dichlorophenyl)methyl)-5-((3-cyclopropyl-2-imino-2,3-dihydro-1H-imidazol-1-yl)methyl)-2′-(difluoromethoxy)-4′-fluoro-[1,1′-biphenyl]-3-carboxamide], 0.59 nM.
Take `Cn1ccn(Cc2cc(C(=O)N[C@H](c3ccc(Cl)c(Cl)c3)C3CC3)cc(-c3cccnc3C(F)(F)F)c2)c1=N` [Example 153, (S)—N-(Cyclopropyl(3,4-dichlorophenyl)methyl)-3-((2-imino-3-methyl-2,3-dihydro-1H-imidazol-1-yl)methyl)-5-(2-(trifluoromethyl)pyridin-3-yl)benzamide]: the Ki stood at 0.33 nM.
